Data on one substance can be found in patent US20200069775A1, “BRAIN OSTEOCALCIN RECEPTOR AND COGNITIVE DISORDERS” (The Trustees of Columbia University in the City of New York, priority 2017, published 2020).

The test system of test [1] is neurons in WT brain sections (ventral tegmental area, substantia nigrae, raphe nuclei). Put plainly: Binding of biotinylated osteocalcin to brain sections (anti-biotin immunofluorescence). More on the design: species or system mouse. As for the experimental part: Brains from 8-week-old mice were snap-frozen in isopentane, and […] thick sections were prepared and desiccated overnight at 4° C. under vacuum. On the following day, sections were rehydrated in ice-cold binding buffer (50 mM TrisHCl [pH 7.4], 10 mM MgCl2, 0.1 mM EDTA and 0.1% BSA) for 15 min and incubated for 1 hr in the presence of biotinylated osteocalcin (3, 30, 300, 3000 ng/ml) or biotynylated recombinant GST as a control (10 μg/ml). After washing in harvesting buffer (50 mM Tris-HCl, pH 7.4), samples were fixed in 4% paraformaldehyde for 15 min, washed in PBS and incubated with goat anti-biotin antibody (1:1000, Vector laboratories) over night at 4° C. Signal was visualized by incubating with anti-goat IgG Cy-3 using Leica DM 5000B microscope (Leica). The binding assays were perform on adjacent sections for each conditions tested. […] This was tested by incubating sections of adult or embryonic (E18.5) WT brains with biotinylated undercarboxylated osteocalcin or GST-biotin alone (30 μg/ml), followed by immunofluorescence analysis using an anti-biotin antibody.

Test [2] addresses T1, complex containing Gpr158 and the G[…]q subunit (Mus musculus, UniProt Q8C419).
T1 construct: Pull-down assay using biotinylated-osteocalcin on solubilized Ocn−/− hippocampal membrane; from tissue; host or cells: hippocampi of Ocn-/- mice, membranes solubilized with n-octyl beta-D-thioglucopyranoside
T1 sequence (Q8C419 25-1200): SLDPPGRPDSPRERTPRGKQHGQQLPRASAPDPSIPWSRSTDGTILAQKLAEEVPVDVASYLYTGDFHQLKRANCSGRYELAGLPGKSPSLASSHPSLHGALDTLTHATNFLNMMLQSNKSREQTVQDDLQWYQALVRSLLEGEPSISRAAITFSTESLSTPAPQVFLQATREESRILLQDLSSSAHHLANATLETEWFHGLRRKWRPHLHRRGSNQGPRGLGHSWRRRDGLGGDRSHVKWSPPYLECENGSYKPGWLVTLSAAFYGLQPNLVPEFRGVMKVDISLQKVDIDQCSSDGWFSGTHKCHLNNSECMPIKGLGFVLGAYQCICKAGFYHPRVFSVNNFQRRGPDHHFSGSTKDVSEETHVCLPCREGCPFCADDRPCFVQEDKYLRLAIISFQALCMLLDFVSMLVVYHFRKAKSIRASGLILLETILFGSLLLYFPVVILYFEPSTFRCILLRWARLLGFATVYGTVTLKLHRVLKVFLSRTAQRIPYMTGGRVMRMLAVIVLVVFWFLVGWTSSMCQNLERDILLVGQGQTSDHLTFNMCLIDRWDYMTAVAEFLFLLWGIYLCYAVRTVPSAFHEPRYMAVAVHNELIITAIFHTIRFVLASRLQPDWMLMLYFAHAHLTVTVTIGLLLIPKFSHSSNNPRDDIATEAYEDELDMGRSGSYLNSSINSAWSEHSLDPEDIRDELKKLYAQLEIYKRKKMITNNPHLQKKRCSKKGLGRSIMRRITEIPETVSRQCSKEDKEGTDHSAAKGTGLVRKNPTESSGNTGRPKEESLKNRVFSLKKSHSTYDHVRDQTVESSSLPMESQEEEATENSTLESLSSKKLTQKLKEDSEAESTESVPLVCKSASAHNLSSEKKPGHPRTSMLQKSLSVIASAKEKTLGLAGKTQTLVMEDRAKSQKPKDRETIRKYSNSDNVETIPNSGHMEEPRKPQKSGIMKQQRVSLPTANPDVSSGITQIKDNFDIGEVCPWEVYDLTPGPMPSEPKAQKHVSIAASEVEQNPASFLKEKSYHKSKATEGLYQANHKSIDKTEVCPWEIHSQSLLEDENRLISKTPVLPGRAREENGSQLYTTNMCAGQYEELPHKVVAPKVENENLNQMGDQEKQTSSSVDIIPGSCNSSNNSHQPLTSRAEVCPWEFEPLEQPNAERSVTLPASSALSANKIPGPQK
T1 sequence (P21279 1-359 partner): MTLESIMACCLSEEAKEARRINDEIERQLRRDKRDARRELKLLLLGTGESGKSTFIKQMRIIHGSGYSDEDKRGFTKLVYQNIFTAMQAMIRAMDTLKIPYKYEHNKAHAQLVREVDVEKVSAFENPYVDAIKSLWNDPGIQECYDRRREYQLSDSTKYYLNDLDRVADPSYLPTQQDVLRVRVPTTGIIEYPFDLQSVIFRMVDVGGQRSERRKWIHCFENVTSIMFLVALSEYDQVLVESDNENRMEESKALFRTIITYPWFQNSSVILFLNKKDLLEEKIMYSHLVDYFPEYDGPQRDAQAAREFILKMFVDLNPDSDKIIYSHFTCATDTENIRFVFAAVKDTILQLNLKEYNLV
Kind of test: Pull-down assay with biotinylated osteocalcin on solubilized hippocampal membranes. The conditions noted are these: solubilized membranes from hippocampal tissue. It is filed as binding. The protocol:
For Western blotting, frozen hippocampi from adult mice were lysed and homogenized in 250 µl tissue lysis buffer (25 mM Tris HCl 7.5; 100 mM NaF; 10 mM Na4P2O7; 10 mmM EDTA; 1% NP 40). Proteins were transferred to nitrocellulose membranes, and blocked with TBST-5% BSA for 1 hour. Antibodies: anti-Runx2 M-70 sc-10758, Santa Cruz, anti-BDNF: sc-546, Santa Cruz; anti-tubulin: T6199, Sigma; anti-Gpr158 ABIN1535721, Assay Biotechnology; anti-Na,K ATPase 3010S Cell Signaling , were diluted (1:1000) in TBST-5% BSA and incubated overnight at 4° C. HRP-coupled secondary antibodies and ECL were used to visualize the signal. Western blot bands were quantified using ImageJ software. cAMP accumulation was measured in primary hippocampal neurons by using cAMP Parameter Assay Kit (R&D systems) and performed in primary hippocampal neurons (DIV15) following manufacturer instructions. For IP1 accumulation was determined in primary hippocampal neurons (DIV15) by using IP-One ELISA assay kit (Cisbio) following manufacturer instructions. […]
Streptavidin were added for 30 minutes at room temperature followed by PBS washes. […] For hormonal measurement; circulating levels of the carboxylated, undercarboxylated or uncarboxylated forms of osteocalcin were measured by ELISA. CTX content in serum (ng/ml) were measured with specific ELISAs (RatLaps™ (CTX-I) EIA (Immunodiagnosticsystems).

Where no end group is shown, it is not given here.

As to “biotinylated osteocalcin: biotin-labelled undercarboxylated osteocalcin used for binding and pull-down assays (YLGASVPSPDPLEPTREQCELNPACDELSDQYGLKTAYKRIYGITI; ends and bridges not checked; also: biotin label, attachment site not given here)”, in test [1] (WT brain sections), the “binding in the brainstem” value is given as “bound to neurons of the raphe nuclei”; the “binding in the midbrain” value was “bound to the ventral tegmental area and the substantia nigrae”. Also, the “binding to neuronal populations in brain sections” value in test [1] (adult or embryonic (E18.5) WT brain sections) is “bound to several neuronal populations in the forebrain, midbrain, and brainstem”. Besides, the “specificity of binding in midbrain and brainstem (competition)” value in test [1] (excess of unlabeled osteocalcin or of GST) was “specific since it was chased away by an excess of unlabeled osteocalcin but not by an excess of GST”. In test [2], the “binding in pull-down assay” value is “could bind a complex containing Gpr158 and the G[…]q subunit”.
